Legend:
[1] = tested on: cheatgrass; assay: Test B preemergence/postemergence greenhouse plant response rating 0 to 10; type: in vivo, Bromus secalinus; settings: for Plant response rating, Cheatgrass: 0 to 10 scale
Method in brief: (§1)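 Test chemicals, dissolved in a non-phytotoxic solvent, were applied to soil at planting and, at the same time, over foliage of seedlings at the one to four leaf stage.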

[2] = tested on: corn; assay: as above; type: in vivo, Zea mays; settings: for Plant response rating, Corn: 0 to 10 scale
Method in brief: as §1

[3] = tested on: cotton; assay: as above; type: in vivo, Gossypium hirsutum; settings: for Plant response rating, Cotton: 0 to 10 scale
Method in brief: as §1

[4] = tested on: lambsquarters; assay: as above; type: in vivo, Chenopodium album; settings: 0 to 10 scale
Method in brief: as §1

[5] = tested on: rice; assay: as above; type: in vivo, Oryza sativa; settings: 0 to 10 scale
Method in brief: as §1

[6] = tested on: wheat; assay: as above; type: in vivo, Triticum aestivum; settings: 0 to 10 scale
Method in brief: as §1

[7] = tested on: wild oat; assay: as above; type: in vivo, Avena fatua; settings: 0 to 10 scale
Method in brief: as §1

[8] = tested on: bedstraw; assay: Test C preemergence/postemergence greenhouse plant response rating 0 to 100; type: in vivo, Galium aparine; settings: POSTEMERGENCE; for Plant response rating, Bedstraw: 0 to 100 scale
Method in brief: (§2)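 Compounds in non-phytotoxic solvent went onto sandy loam before emergence (seeded one day earlier) or onto plants at the one-to-four leaf stage. Duck salad was treated via flood water (~2.5 cm, maintained) over silt loam.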

[9] = tested on: cotton; assay: as above; type: in vivo, Gossypium hirsutum; settings: POSTEMERGENCE; for Plant response rating, Cotton: 0 to 100 scale
Method in brief: as §2

[10] = tested on: crabgrass; assay: as above; type: in vivo, Digitaria sanguinalis; settings: POSTEMERGENCE; for Plant response rating, Crabgrass: 0 to 100 scale
Method in brief: as §2

[11] = tested on: downy brome; assay: as above; type: in vivo, Bromus tectorum; settings: POSTEMERGENCE; for Plant response rating Downy Brome: 0 to 100 scale
Method in brief: as §2

[12] = tested on: giant foxtail; assay: as above; type: in vivo, Setaria faberii; settings: POSTEMERGENCE; for Plant response rating, Giant foxtail: 0 to 100 scale
Method in brief: as §2

[13] = tested on: lambsquarters; assay: as above; type: in vivo, Chenopodium album; settings: POSTEMERGENCE; for Plant response rating Lambsquarters: 0 to 100 scale
Method in brief: as §2

[14] = tested on: sorghum; assay: as above; type: in vivo, Sorghum bicolor; settings: POSTEMERGENCE; for Plant response rating, Sorghum: 0 to 100 scale
Method in brief: as §2

[15] = tested on: sugar beet; assay: as above; type: in vivo, Beta vulgaris; settings: POSTEMERGENCE; for Plant response rating, Sugar beet: 0 to 100 scale
Method in brief: as §2

[16] = tested on: velvetleaf; assay: as above; type: in vivo, Abutilon theophrasti; settings: POSTEMERGENCE; for Plant response rating, Velvetleaf: 0 to 100 scale
Method in brief: as §2

[17] = tested on: duck salad; assay: Test C flood test plant response rating 0 to 100; type: in vivo, Heteranthera limosa; settings: for Plant response rating Duck salad: flood test species listed under POSTEMERGENCE, 0 to 100 scale
Method in brief: as §2

[18] = tested on: barnyardgrass; assay: Test C flood test plant response rating 0 to 100; type: in vivo, Echinochloa crus-galli; settings: for Plant response rating (0 to 100), Barnyardgrass: under POSTEMERGENCE head (flood test species); for Plant response rating, Barnyardgrass: flood test species listed under POSTEMERGENCE, 0 to 100 scale
Method in brief: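 Compounds in non-phytotoxic solvent applied preemergence to sandy loam one day after planting, postemergence at the 1–4 leaf stage, or to ~2.5 cm floodwater over silt loam.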

COC(=O)C(C)Oc1cc(-c2nn3c(c2Cl)CCCC3)c(F)cc1Cl (centres unmarked) [Compound 28]
5: Plant response rating, Rice ([5]; POSTEMERGENCE, Rate 50 g/ha) | Plant response rating, Wild oat ([7]; POSTEMERGENCE, Rate 50 g/ha)
50: Plant response rating, Crabgrass ([10]; 250 g/ha) | Plant response rating (0 to 100), Lambsquarters ([13]; Rate 4 g/ha) | Plant response rating (0 to 100), Sorghum ([14]; Rate 16 g/ha) | Plant response rating (0 to 100), Barnyardgrass ([18]; Rate 16 g/ha)
0: Plant response rating, Corn ([2]; PREEMERGENCE, Rate 50 g/ha) | Plant response rating, Cotton ([3]; PREEMERGENCE, Rate 50 g/ha) | Plant response rating, Cotton ([3]; Rate 200 g/ha, PREEMERGENCE) | Plant response rating, Rice ([5]; PREEMERGENCE, Rate 50 g/ha) | Plant response rating, Wheat ([6]; PREEMERGENCE, Rate 50 g/ha) | Plant response rating (0 to 100), Crabgrass ([10]; Rate 4 g/ha) | Plant response rating (0 to 100), Crabgrass ([10]; Rate 16 g/ha) | Plant response rating (0 to 100), Duck salad ([17]; POSTEMERGENCE section, flood test, Rate 4 g/ha) | Plant response rating (0 to 100), Duck salad ([17]; Rate 16 g/ha, under POSTEMERGENCE head (flood test species))
4: Plant response rating, Cheatgrass ([1]; PREEMERGENCE, Rate 50 g/ha)
9: Plant response rating, Cheatgrass ([1]; POSTEMERGENCE, Rate 200 g/ha) | Plant response rating, Corn ([2]; POSTEMERGENCE, Rate 200 g/ha) | Plant response rating, Wheat ([6]; POSTEMERGENCE, Rate 200 g/ha)
60: Plant response rating Downy Brome ([11]; 62 g/ha) | Plant response rating (0 to 100), Giant foxtail ([12]; Rate 16 g/ha)
40: Plant response rating (0 to 100), Downy Brome ([11]; Rate 16 g/ha)
30: Plant response rating Duck salad ([17]; 62 g/ha)
7: Plant response rating, Rice ([5]; POSTEMERGENCE, Rate 200 g/ha) | Plant response rating, Wheat ([6]; POSTEMERGENCE, Rate 50 g/ha)
95: Plant response rating, Barnyardgrass ([18]; 62 g/ha)
80: Plant response rating Lambsquarters ([13]; 62 g/ha) | Plant response rating (0 to 100), Lambsquarters ([13]; Rate 16 g/ha)
90: Plant response rating (0 to 100), Bedstraw ([8]; Rate 4 g/ha)
100: Plant response rating, Bedstraw ([8]; 62 g/ha) | Plant response rating, Bedstraw ([8]; 250 g/ha) | Plant response rating (0 to 100), Bedstraw ([8]; Rate 16 g/ha) | Plant response rating, Cotton ([9]; 62 g/ha) | Plant response rating, Cotton ([9]; 250 g/ha) | Plant response rating (0 to 100), Cotton ([9]; Rate 4 g/ha) | Plant response rating (0 to 100), Cotton ([9]; Rate 16 g/ha) | Plant response rating Downy Brome ([11]; 250 g/ha) | Plant response rating, Giant foxtail ([12]; 62 g/ha) | Plant response rating, Giant foxtail ([12]; 250 g/ha) | Plant response rating Lambsquarters ([13]; 250 g/ha) | Plant response rating, Sorghum ([14]; 62 g/ha) | Plant response rating, Sorghum ([14]; 250 g/ha) | Plant response rating, Sugar beet ([15]; 62 g/ha) | Plant response rating, Sugar beet ([15]; 250 g/ha) | Plant response rating (0 to 100), Sugar beet ([15]; Rate 4 g/ha) | Plant response rating (0 to 100), Sugar beet ([15]; Rate 16 g/ha) | Plant response rating, Velvetleaf ([16]; 62 g/ha) | Plant response rating, Velvetleaf ([16]; 250 g/ha) | Plant response rating (0 to 100), Velvetleaf ([16]; Rate 4 g/ha) | Plant response rating (0 to 100), Velvetleaf ([16]; Rate 16 g/ha) | Plant response rating, Barnyardgrass ([18]; 250 g/ha)
2: Plant response rating, Corn ([2]; Rate 200 g/ha, PREEMERGENCE) | Plant response rating, Rice ([5]; Rate 200 g/ha, PREEMERGENCE) | Plant response rating, Wheat ([6]; Rate 200 g/ha, PREEMERGENCE) | Plant response rating, Wild oat ([7]; Rate 200 g/ha, PREEMERGENCE)
70: Plant response rating Duck salad ([17]; 250 g/ha)
6: Plant response rating (0 to 10 scale), Cheatgrass ([1]; POSTEMERGENCE, Rate 50 g/ha) | Plant response rating, Cheatgrass ([1]; Rate 200 g/ha, PREEMERGENCE) | Plant response rating (0 to 10 scale), Corn ([2]; POSTEMERGENCE, Rate 50 g/ha) | Plant response rating, Wild oat ([7]; POSTEMERGENCE, Rate 200 g/ha)
20: Plant response rating, Crabgrass ([10]; 62 g/ha) | Plant response rating (0 to 100), Giant foxtail ([12]; Rate 4 g/ha) | Plant response rating (0 to 100), Sorghum ([14]; Rate 4 g/ha)
10: Plant response rating (0 to 10 scale), Cotton ([3]; POSTEMERGENCE, Rate 50 g/ha) | Plant response rating, Cotton ([3]; POSTEMERGENCE, Rate 200 g/ha) | Plant response rating, Lambsquarter ([4]; POSTEMERGENCE, Rate 50 g/ha) | Plant response rating, Lambsquarter ([4]; POSTEMERGENCE, Rate 200 g/ha) | Plant response rating, Lambsquarter ([4]; PREEMERGENCE, Rate 50 g/ha) | Plant response rating, Lambsquarter ([4]; Rate 200 g/ha, PREEMERGENCE) | Plant response rating (0 to 100), Downy Brome ([11]; Rate 4 g/ha)
35: Plant response rating (0 to 100), Barnyardgrass ([18]; Rate 4 g/ha)

From US6358885B1, “Substituted phenylheterocyclic herbicides” (Mississippi State University, priority 1992, dated 2002)
